Laboratory results as given in patent US12492181B2, “Gem-disubstituted piperidine melanocortin subtype-2 receptor (MC2R) antagonists and uses thereof” (Crinetics Pharmaceuticals, Inc., priority 2019, dated 2025).

Target: T1, hMC2 receptor (crude hMC2R membranes from CRE-bla-CHO-K1 cells stably expressing hMC2 receptor and hMRAP accessory protein) (Homo sapiens, UniProt Q01718)
T1 construct: crude membrane fractions
Experiment: hMC2 membrane binding assay ([125I]ACTH (1-39) Tyr23, SPA)
Settings: displacement of 0.2 nM [125I]ACTH (1-39) Tyr23 from hMC2R membranes, 1.5 hours at room temperature; read-out: MC2R binding potency
Outline: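 Ki values come from non-linear regression of SPA scintillation counts, with compounds displacing [125I]ACTH(1-39) Tyr23. Membranes come from CRE-bla-CHO-K1 cells stably expressing hMC2 receptor together with hMRAP. They are preincubated with WGA-coated PVT SPA beads in 50 mM HEPES pH 7.4 with 0.20% BSA, Mg2+, Ca2+ and protease inhibitors.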

T1 sequence (Q01718 whole entry): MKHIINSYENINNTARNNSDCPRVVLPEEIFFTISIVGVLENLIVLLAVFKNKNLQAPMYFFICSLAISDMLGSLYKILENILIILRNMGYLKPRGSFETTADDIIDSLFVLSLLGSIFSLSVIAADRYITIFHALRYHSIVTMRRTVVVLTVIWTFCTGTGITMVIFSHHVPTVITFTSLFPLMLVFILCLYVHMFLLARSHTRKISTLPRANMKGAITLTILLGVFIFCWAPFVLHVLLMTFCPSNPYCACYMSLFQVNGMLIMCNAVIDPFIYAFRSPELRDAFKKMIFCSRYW
T1 sequence (Q8TCY5 whole entry partner): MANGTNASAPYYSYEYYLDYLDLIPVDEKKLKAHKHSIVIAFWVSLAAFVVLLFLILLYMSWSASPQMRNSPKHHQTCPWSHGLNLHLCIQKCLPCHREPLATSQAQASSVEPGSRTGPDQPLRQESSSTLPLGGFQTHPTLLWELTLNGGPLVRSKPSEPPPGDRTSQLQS

CCOc1ncccc1-c1ccc(C2(NCCO)CCN(c3ccc(C(F)(F)F)cc3C#N)CC2)cn1 [Compound 2-14, 2-(4-{2′-ethoxy-[2,3′-bipyridin]-5-yl}-4-[(2-hydroxyethyl)amino]piperidin-1-yl)-5-(trifluoromethyl)benzonitrile]
Ki: 10 to 100 nM

CCOc1ccccc1-c1ccc(C2(C(=O)N[C@H]3CCN(C)C3)CCN(c3c(F)cc(Cl)cc3C#N)CC2)cn1 [Compound 1-111, 1-(4-chloro-2-cyano-6-fluorophenyl)-4-[6-(2-ethoxyphenyl)pyridin-3-yl]-N-[(3S)-1-methylpyrrolidin-3-yl]piperidine-4-carboxamide]
Ki: < 10 nM

CCOc1ccccc1-c1ccc(C2(C(=O)NC3CN(C)C3)CCN(c3ccc(Cl)cc3C#N)CC2)cn1 [Compound 1-93, 1-(4-chloro-2-cyanophenyl)-4-[6-(2-ethoxyphenyl)pyridin-3-yl]-N-(1-methylazetidin-3-yl)piperidine-4-carboxamide]
Ki: < 10 nM

CN1CC[C@@H](NC(=O)C2(c3ccc(-c4cccc5c4OCC5)nc3)CCN(c3ccc(C(F)(F)F)cc3C#N)CC2)C1 [Compound 1-53, 1-[2-cyano-4-(trifluoromethyl)phenyl]-4-[6-(2,3-dihydro-1-benzofuran-7-yl)pyridin-3-yl]-N-[(3R)-1-methylpyrrolidin-3-yl]piperidine-4-carboxamide]
Ki: 10 to 100 nM

CCOc1ncccc1-c1cnc(C2(C(=O)N[C@@H]3CCN(C)C3)CCN(c3ccc(C(F)(F)F)cc3C#N)CC2)cn1 [Compound 1-51, 1-[2-cyano-4-(trifluoromethyl)phenyl]-4-[5-(2-ethoxypyridin-3-yl)pyrazin-2-yl]-N-[(3R)-1-methylpyrrolidin-3-yl]piperidine-4-carboxamide]
Ki: < 10 nM

COc1ncc(F)cc1-c1ncc(C2(C(=O)N[C@H]3CCN(C)C3)CCN(c3ccc(C(F)(F)F)cc3C#N)CC2)cc1F [Compound 1-209, 1-[2-cyano-4-(trifluoromethyl)phenyl]-4-{3,5′-difluoro-2′-methoxy-[2,3′-bipyridin]-5-yl}-N-[(3S)-1-methylpyrrolidin-3-yl]piperidine-4-carboxamide]
Ki: < 10 nM

Cc1cscc1-c1ccc(C2(C(=O)N[C@@H]3CCN(C)C3)CCN(c3ccc(C(F)(F)F)cc3C#N)CC2)cn1 [Compound 1-138, 1-[2-cyano-4-(trifluoromethyl)phenyl]-N-[(3R)-1-methylpyrrolidin-3-yl]-4-[6-(4-methylthiophen-3-yl)pyridin-3-yl]piperidine-4-carboxamide]
Ki: < 10 nM

CCOc1ncccc1-c1ccc(C2(C(=O)N[C@H]3CCN(C)C3)CCN(c3ccc(C(F)(F)F)nc3C(N)=O)CC2)cn1 [Compound 1-27, 3-(4-{2′-ethoxy-[2,3′-bipyridin]-5-yl}-4-{[(3S)-1-methylpyrrolidin-3-yl]carbamoyl}piperidin-1-yl)-6-(trifluoromethyl)pyridine-2-carboxamide]
Ki: 10 to 100 nM

CN1CC[C@@H](NC(=O)C2(c3ccc(-c4ccccc4C(C)(F)F)nc3)CCN(c3ccc(C(F)(F)F)cc3C#N)CC2)C1 [Compound 1-84, 1-[2-cyano-4-(trifluoromethyl)phenyl]-4-{6-[2-(1,1-difluoroethyl)phenyl]pyridin-3-yl}-N-[(3R)-1-methylpyrrolidin-3-yl]piperidine-4-carboxamide]
Ki: 10 to 100 nM

Cn1cccc1-c1ccc(C2(C(=O)N[C@H]3CN4CCC3CC4)CCN(c3ccc(C(F)(F)F)cc3C#N)CC2)cn1 [Compound 1-188, N-[(3R)-1-azabicyclo[2.2.2]octan-3-yl]-1-[2-cyano-4-(trifluoromethyl)phenyl]-4-[6-(1-methyl-1H-pyrrol-2-yl)pyridin-3-yl]piperidine-4-carboxamide]
Ki: 10 to 100 nM

CNCCCNC(=O)C1(c2cnc(-c3ccccc3OC)c(F)c2)CCN(c2ccc(C(F)(F)F)cc2C#N)CC1 [Compound 1-197, 1-[2-cyano-4-(trifluoromethyl)phenyl]-4-[5-fluoro-6-(2-methoxyphenyl)pyridin-3-yl]-N-[3-(methylamino)propyl]piperidine-4-carboxamide]
Ki: < 10 nM

CN1CC[C@H](NC(=O)C2(c3ccc(-c4cccn4C)nc3)CCN(c3ccc(C(F)(F)F)cc3Cl)CC2)C1 [Compound 1-160, 1-[2-chloro-4-(trifluoromethyl)phenyl]-4-[6-(1-methyl-1H-pyrrol-2-yl)pyridin-3-yl]-N-[(3S)-1-methylpyrrolidin-3-yl]piperidine-4-carboxamide]
Ki: < 10 nM

CCOc1ncccc1-c1ccc(C2(C(=O)N[C@@H](C)CNC)CCN(c3ccc(C(F)(F)F)cc3C#N)CC2)cn1 [Compound 1-314, 1-[2-cyano-4-(trifluoromethyl)phenyl]-4-{2′-ethoxy-[2,3′-bipyridin]-5-yl}-N-[(2S)-1-(methylamino)propan-2-yl]piperidine-4-carboxamide]
Ki: < 10 nM

Cc1sccc1-c1ccc(C2(C(=O)N[C@H]3CCN(C)C3)CCN(c3ccc(C(F)(F)F)cc3C#N)CC2)cn1 [Compound 1-122, 1-[2-cyano-4-(trifluoromethyl)phenyl]-N-[(3S)-1-methylpyrrolidin-3-yl]-4-[6-(2-methylthiophen-3-yl)pyridin-3-yl]piperidine-4-carboxamide]
Ki: < 10 nM

CCOc1ncccc1-c1ncc(C2(C(=O)NC[C@H](CO)N(C)C)CCN(c3ccc(C(F)(F)F)cc3C#N)CC2)cc1F [Compound 1-334, 1-[2-cyano-4-(trifluoromethyl)phenyl]-N-[(2R)-2-(dimethylamino)-3-hydroxypropyl]-4-{2′-ethoxy-3-fluoro-[2,3′-bipyridin]-5-yl}piperidine-4-carboxamide]
Ki: < 10 nM

COc1ncc(F)cc1-c1ccc(C2(C(=O)N[C@@H]3CCN(C)C3)CCN(c3ccc(C(F)(F)F)cc3C#N)CC2)cn1 [Compound 1-86, 1-[2-cyano-4-(trifluoromethyl)phenyl]-4-{5′-fluoro-2′-methoxy-[2,3′-bipyridin]-5-yl}-N-[(3R)-1-methylpyrrolidin-3-yl]piperidine-4-carboxamide]
Ki: < 10 nM

COc1sccc1-c1ccc(C2(C(=O)N[C@@H]3CCN(C)C3)CCN(c3ccc(C(F)(F)F)cc3C#N)CC2)cn1 [Compound 1-83, 1-[2-cyano-4-(trifluoromethyl)phenyl]-4-[6-(2-methoxythiophen-3-yl)pyridin-3-yl]-N-[(3R)-1-methylpyrrolidin-3-yl]piperidine-4-carboxamide]
Ki: < 10 nM

CCOc1ncccc1-c1ccc(C2(C(=O)N[C@H]3CCN(C)C3)CCN(c3ccc(C(C)=O)cc3C#N)CC2)cn1 [Compound 1-36, 1-(4-acetyl-2-cyanophenyl)-4-{2′-ethoxy-[2,3′-bipyridin]-5-yl}-N-[(3S)-1-methylpyrrolidin-3-yl]piperidine-4-carboxamide]
Ki: < 10 nM

CCOc1ncccc1-c1ccc(C2(NC(=O)O[C@H]3CCN(C)C3)CCN(c3ccc(C(F)(F)F)cc3C#N)CC2)cc1 [Compound 2-13, (3S)-1-methylpyrrolidin-3-yl N-{1-[2-cyano-4-(trifluoromethyl)phenyl]-4-[4-(2-ethoxypyridin-3-yl)phenyl]piperidin-4-yl}carbamate]
Ki: 10 to 100 nM

CN1CC[C@@H](NC(=O)C2(c3ccc(-c4cccc5ccn(C)c45)nc3)CCN(c3ccc(C(F)(F)F)cc3C#N)CC2)C1 [Compound 1-190, 1-[2-cyano-4-(trifluoromethyl)phenyl]-4-[6-(1-methyl-1H-indol-7-yl)pyridin-3-yl]-N-[(3R)-1-methylpyrrolidin-3-yl]piperidine-4-carboxamide]
Ki: 10 to 100 nM

CCOc1ccccc1-c1ccc(C2(C(=O)N[C@H]3CCN(C)C3)CCN(c3ccc(Cl)cc3C#N)CC2)cn1 [Compound 1-90, 1-(4-chloro-2-cyanophenyl)-4-[6-(2-ethoxyphenyl)pyridin-3-yl]-N-[(3S)-1-methylpyrrolidin-3-yl]piperidine-4-carboxamide]
Ki: < 10 nM

COc1ccccc1-c1ccc(C2(C(=O)NC[C@@H]3C[C@@H](F)CN3C)CCN(c3ccc(C(F)(F)F)cc3C#N)CC2)cn1 [Compound 1-250, 1-[2-cyano-4-(trifluoromethyl)phenyl]-N-{[(2S,4R)-4-fluoro-1-methylpyrrolidin-2-yl]methyl}-4-[6-(2-methoxyphenyl)pyridin-3-yl]piperidine-4-carboxamide]
Ki: < 10 nM

COc1ncccc1-c1ccc(C2(C(=O)N[C@H]3CCN(C)C3)CCN(c3ccc(C(F)(F)F)cc3Cl)CC2)cn1 [Compound 1-142, 1-[2-chloro-4-(trifluoromethyl)phenyl]-4-{2′-methoxy-[2,3′-bipyridin]-5-yl}-N-[(3S)-1-methylpyrrolidin-3-yl]piperidine-4-carboxamide]
Ki: < 10 nM

COc1ccsc1-c1ccc(C2(C(=O)N[C@@H]3CCN(C)C3)CCN(c3ccc(C(F)(F)F)cc3C#N)CC2)cn1 [Compound 1-80, 1-[2-cyano-4-(trifluoromethyl)phenyl]-4-[6-(3-methoxythiophen-2-yl)pyridin-3-yl]-N-[(3R)-1-methylpyrrolidin-3-yl]piperidine-4-carboxamide]
Ki: < 10 nM

CCOc1ncccc1-c1ccc(C2(NC(=O)C3CN(C)C3)CCN(c3ccc(C(F)(F)F)cc3C#N)CC2)cc1 [Compound 2-16, N-{1-[2-cyano-4-(trifluoromethyl)phenyl]-4-[4-(2-ethoxypyridin-3-yl)phenyl]piperidin-4-yl}-1-methylazetidine-3-carboxamide]
Ki: 10 to 100 nM

CCOc1ccccc1-c1ccc(C2(NC(=O)C3CN(C)C3)CCN(c3ccc(C(F)(F)F)cc3C#N)CC2)cn1 [Compound 2-35, N-{1-[2-cyano-4-(trifluoromethyl)phenyl]-4-[6-(2-ethoxyphenyl)pyridin-3-yl]piperidin-4-yl}-1-methylazetidine-3-carboxamide]
Ki: < 10 nM

CN1CC[C@@H](NC(=O)C2(c3ccc(-c4ccn(C)c4)nc3)CCN(c3ccc(C(F)(F)F)cc3C#N)CC2)C1 [Compound 1-115, 1-[2-cyano-4-(trifluoromethyl)phenyl]-4-[6-(1-methyl-1H-pyrrol-3-yl)pyridin-3-yl]-N-[(3R)-1-methylpyrrolidin-3-yl]piperidine-4-carboxamide]
Ki: 10 to 100 nM
